“And” between values parts separate entries of the source, which are not always exact repeats. Equal values may be shown once.
Tested on: 485368-065-R4-J2-PDC spheroids with HUVEC/MSC, viability
Assay: Anticancer human tumor 485368-065-R4-J2-PDC patient-derived pancreatic carcinoma cell line growth inhibition [CLK]
Details: for viability, T/C: stronger effect = lower value; active = viability on the fitted dose curve at most 10% of control; inactive = the rest
Outline: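 Patient-derived tumor cells grown as complex spheroids with HUVEC endothelial cells and mesenchymal stem cells, treated with drug combinations. Concentrations descend in half-log steps from near clinical Cmax, or from 10 microM if Cmax unknown.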

[1] = curve of first compound, second compound 0.0316 µM
[2] = curve of first compound, second compound 0.1 µM
[3] = curve of first compound, second compound 0.316 µM
[4] = curve of first compound, second compound 1 µM
[5] = curve of first compound, second compound 3.16 µM
[6] = curve of first compound, second compound 10 µM
[7] = second compound 0.0316 µM, first compound 0.00949 µM
[8] = second compound 0.0316 µM, first compound 0.03 µM
[9] = second compound 0.0316 µM, first compound 0.0949 µM
[10] = second compound 0.0316 µM, first compound 0.3 µM
[11] = second compound 0.1 µM, first compound 0.00949 µM
[12] = second compound 0.1 µM, first compound 0.03 µM
[13] = second compound 0.1 µM, first compound 0.0949 µM
[14] = second compound 0.1 µM, first compound 0.3 µM
[15] = second compound 0.316 µM, first compound 0.00949 µM
[16] = second compound 0.316 µM, first compound 0.03 µM
[17] = second compound 0.316 µM, first compound 0.0949 µM
[18] = second compound 0.316 µM, first compound 0.3 µM
[19] = second compound 1 µM, first compound 0.00949 µM
[20] = second compound 1 µM, first compound 0.03 µM
[21] = second compound 1 µM, first compound 0.0949 µM
[22] = second compound 1 µM, first compound 0.3 µM
[23] = second compound 3.16 µM, first compound 0.00949 µM
[24] = second compound 3.16 µM, first compound 0.03 µM
[25] = second compound 3.16 µM, first compound 0.0949 µM
[26] = second compound 3.16 µM, first compound 0.3 µM
[27] = second compound 10 µM, first compound 0.00949 µM
[28] = second compound 10 µM, first compound 0.03 µM
[29] = second compound 10 µM, first compound 0.0949 µM
[30] = second compound 10 µM, first compound 0.3 µM
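Also: spheroids exposed to compounds for seven days.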
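For viability, T/C in this document: 100% = DMSO vehicle control wells.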

NC(=O)C(=Cn1cnc(-c2cc(C(F)(F)F)cc(C(F)(F)F)c2)n1)c1cncnc1 + CN1CCN(c2cc(C(=O)Nc3cc4cc(-c5cnn(C)c5)ccc4cn3)ccn2)CC1
< 9.49 nM: IC50 [4] | IC50 [5] | IC50 [6]
2910 nM: IC50 [2]
> 3000 nM: IC50 [1]
48.1 nM: IC50 [3]
inactive: viability, T/C [7] 100% | viability, T/C [8] 127% | viability, T/C [9] 173% | viability, T/C [10] 170% | viability, T/C (second compound 0.0316 µM, first compound 0.949 µM) 142% | viability, T/C (second compound 0.0316 µM, first compound 3 µM) 71.4% | viability, T/C [11] 109% | viability, T/C [12] 125% | viability, T/C [13] 155% | viability, T/C [14] 129% | viability, T/C (second compound 0.1 µM, first compound 0.949 µM) 79.5% | viability, T/C (second compound 0.1 µM, first compound 3 µM) 49.2% | viability, T/C [15] 71.2% | viability, T/C [16] 65.3% | viability, T/C [17] 28.8%
active: viability, T/C [18] 11.8% | viability, T/C (second compound 0.316 µM, first compound 0.949 µM) 4.77% | viability, T/C (second compound 0.316 µM, first compound 3 µM) 3.83% | viability, T/C [19] 0.93% | viability, T/C [20] 1.37% | viability, T/C [21] 3.35% | viability, T/C [22] 7.19% | viability, T/C (second compound 1 µM, first compound 0.949 µM) 6.52% | viability, T/C (second compound 1 µM, first compound 3 µM) 6.06% | viability, T/C [23] 1.64% | viability, T/C [24] 3.12% | viability, T/C [25] 5.78% | viability, T/C [26] 7.76% | viability, T/C (second compound 3.16 µM, first compound 0.949 µM) 10.5% | viability, T/C (second compound 3.16 µM, first compound 3 µM) 8.08% | viability, T/C [27] 1.73% | viability, T/C [28] 4.63% | viability, T/C [29] 4.7% | viability, T/C [30] 7.24% | viability, T/C (second compound 10 µM, first compound 0.949 µM) 9.55% | viability, T/C (second compound 10 µM, first compound 3 µM) 6.71%

C=CC(=O)Nc1cc(Nc2nccc(-c3cn(C)c4ccccc34)n2)c(OC)cc1N(C)CCN(C)C + CNC(=O)c1ccc(Nc2nc(OC3CCCC3)c3c(-c4ccc5nc(C)oc5c4)c[nH]c3n2)c(OC)c1
inactive: viability, T/C (second compound 0.0316 µM, first compound 0.000949 µM) 84.6% | viability, T/C (second compound 0.0316 µM, first compound 0.003 µM) 90% | viability, T/C [7] 88.8% | viability, T/C [8] 93.4% | viability, T/C [9] 101% | viability, T/C [10] 87.4% | viability, T/C (second compound 0.1 µM, first compound 0.000949 µM) 90.1% | viability, T/C (second compound 0.1 µM, first compound 0.003 µM) 89% | viability, T/C [11] 95.6% | viability, T/C [12] 90.1% | viability, T/C [13] 92.2% | viability, T/C [14] 98.4% | viability, T/C (second compound 0.316 µM, first compound 0.000949 µM) 82% | viability, T/C (second compound 0.316 µM, first compound 0.003 µM) 85.1% | viability, T/C [15] 81.6% | viability, T/C [16] 79.5% | viability, T/C [17] 83% | viability, T/C [18] 78% | viability, T/C (second compound 1 µM, first compound 0.000949 µM) 78.4% | viability, T/C (second compound 1 µM, first compound 0.003 µM) 72.6% | viability, T/C [19] 81% | viability, T/C [20] 79.4% | viability, T/C [21] 73.5% | viability, T/C [22] 70.8% | viability, T/C (second compound 3.16 µM, first compound 0.000949 µM) 69.4% | viability, T/C (second compound 3.16 µM, first compound 0.003 µM) 70.9% | viability, T/C [23] 66.6% | viability, T/C [24] 68.4% | viability, T/C [25] 66.8% | viability, T/C [26] 68.7% | viability, T/C (second compound 10 µM, first compound 0.000949 µM) 66.5% | viability, T/C (second compound 10 µM, first compound 0.003 µM) 67.6% | viability, T/C [27] 70.1% | viability, T/C [28] 67.3% | viability, T/C [29] 68.9% | viability, T/C [30] 58.6%
> 300 nM: IC50 [1] | IC50 [2] | IC50 [3] | IC50 [4] | IC50 [5] | IC50 [6]

O=c1[nH]cc(F)c(=O)[nH]1
inactive: viability, T/C (compound 0.0316 µM) 95.5% and 88.4% | viability, T/C (compound 0.1 µM) 96.6% and 84.4% | viability, T/C (compound 0.316 µM) 95.6% and 87.4% | viability, T/C (compound 1 µM) 96.9% and 95.8% | viability, T/C (compound 3.16 µM) 96.6% and 96% | viability, T/C (compound 10 µM) 88.5% and 82.3%
> 10000 nM: IC50 (curve of compound)

— PubChem BioAssay AID2060617 (Molecular Pharmacology Branch, DTP, NCI, 2025)
